Data set [1] relates to Influenza A Virus H1N1v strain A/Regensburg/D6/09 (H1N1v). In kind it is cell-based.

Results on two molecules are retold here after patent publication US20240366712A1, “G[…] USE IN A METHOD OF PREVENTING OR TREATING INFECTIONS WITH R[…]” (priority 2021, published 2024).

In the case of `CO[C@H]1C[C@@H]2CC[C@@H](C)[C@@](O)(O2)C(=O)C(=O)N2CCCC[C@H]2C(=O)O[C@H]([C@H](C)C[C@@H]2CC[C@@H](O)[C@H](OC)C2)CC(=O)[C@H](C)/C=C(\C)[C@@H](O)[C@@H](OC)C(=O)[C@H](C)C[C@H](C)/C=C/C=C/C=C/1C` [Rapamycin, reference compound], in the data set on VeroE6 cells, the “Effect on VeroE6 cell viability compared to mock control” value is on record as “slightly decreased the viability of cells”.
For Griffithsin [unencapsulated GRFT], in data set [1], the “Dilution at which PFU reduction reached the detection limit” value is on record as “did not reach the detection limit at 1:2 dilution” and the “Total GRFT concentration at which PFU reduction reached the detection limit” value was above 1.325 mg/mL. Besides, the “PFU reduction in virus infected cells” value in data set [1] (A549 cells, different dilutions/concentrations, n=3 per reading point) is on record as “concentration dependent PFU reduction”. For the same molecule, the “Toxic effect on VeroE6 cell viability compared to mock control” value in the data set on VeroE6 cells is listed as “no specific toxic effect”.
